Laboratory results: PubChem BioAssay (NCI)
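Tested at 5 concentrations; 48 h exposure; 96-well plates; endpoints linearly interpolated, else capped at highest concentration. The concentration for 50% growth inhibition is given as GI50. TGI is the concentration that stops growth completely.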

Columns and labels:
Experiment in all cases: DTP human tumour cell line panel, 48 h
786-0 renal = tested on: 786-0 renal
HCT-15 colon = tested on: HCT-15 colon
MALME-3M melanoma = tested on: MALME-3M melanoma
NCI-H522 lung = tested on: NCI-H522 lung
OVCAR-3 ovarian = tested on: OVCAR-3 ovarian
OVCAR-4 ovarian = tested on: OVCAR-4 ovarian
OVCAR-5 ovarian = tested on: OVCAR-5 ovarian
SF-295 CNS = tested on: SF-295 CNS
SK-MEL-2 melanoma = tested on: SK-MEL-2 melanoma
U251 CNS = tested on: U251 CNS

Row | Compound | TGI (786-0 renal) [µM] | TGI (HCT-15 colon) [µM] | TGI (MALME-3M melanoma) [µM] | TGI (NCI-H522 lung) [µM] | TGI (OVCAR-3 ovarian) [µM] | TGI (OVCAR-4 ovarian) [µM] | TGI (OVCAR-5 ovarian) [µM] | TGI (SF-295 CNS) [µM] | TGI (SK-MEL-2 melanoma) [µM] | TGI (U251 CNS) [µM] | GI50 (786-0 renal) [µM] | GI50 (HCT-15 colon) [µM] | GI50 (MALME-3M melanoma) [µM] | GI50 (NCI-H522 lung) [µM] | GI50 (OVCAR-3 ovarian) [µM] | GI50 (OVCAR-4 ovarian) [µM] | GI50 (OVCAR-5 ovarian) [µM] | GI50 (SF-295 CNS) [µM] | GI50 (SK-MEL-2 melanoma) [µM] | GI50 (U251 CNS) [µM]
1 | CCCC(OCC)(OCC)OCC | > 100 | > 100 | > 100 | > 100 | > 100 | > 100 | > 100 | > 100 | > 100 | > 100 | – | – | – | – | – | – | – | – | – | –
2 | COc1ccc(-c2coc3ncnc(N)c23)cc1 | > 25 | > 25 | > 25 | > 25 | > 25 | > 25 | > 25 | > 25 | > 25 | > 25 | > 25 | > 25 | > 25 | > 25 | > 25 | > 25 | > 25 | > 25 | > 25 | > 25
3 | CCCCCCCCCCCCCOC(=O)c1c(C)[nH]c(/C=C2\N=C(c3ccc[nH]3)C=C2OC)c1C | 12.7 | – | > 100 | > 64.3 | 15.5 | > 100 | > 100 | 37.7 | 0.157 | 17.7 | 0.161 | 0.0262 | 2.6 | 0.215 | 0.227 | 0.425 | 0.0929 | 1.75 | 0.0294 | 0.0764
4 | Nc1nc(N)c2nc(CNc3ccc(C(=O)CC(CCC(=O)O)C(=O)O)cc3)cnc2n1 (configuration not stated) | > 100 | > 100 | > 100 | > 100 | > 100 | > 100 | > 100 | > 100 | > 100 | > 100 | 0.0566 | 0.168 | 1.43 | 0.47 | > 100 | – | – | 0.19 | > 100 | 0.215
5 | CC1(C)CCC(=O)c2c(O)ccc(O)c21 | > 100 | > 100 | > 100 | > 100 | > 100 | > 100 | > 100 | > 100 | > 100 | > 100 | – | – | – | – | – | – | – | – | – | –
6 | CSc1nc(NC2OCC(OC(C)=O)C(OC(C)=O)C2OC(C)=O)c(N=CC=Nc2c(NC3OCC(OC(C)=O)C(OC(C)=O)C3OC(C)=O)nc(SC)n(C)c2=O)c(=O)n1C (configuration not stated) | > 100 | > 100 | > 100 | > 100 | > 100 | > 100 | > 100 | > 100 | > 100 | > 100 | – | – | – | – | – | – | – | – | – | –
7 | COc1cccc(-c2nn(-c3ccccc3)cc2-c2ccnc(NCCNS(=O)(=O)c3ccc(C(F)(F)F)cc3)c2)c1 | 21.4 | > 100 | 6.81 | 12.5 | 7.3 | > 100 | > 100 | 8.67 | 6.47 | 13.9 | 2.63 | 3.04 | 2.33 | 2.33 | 2.59 | 2.94 | 4.98 | 2.91 | 2.42 | 3.54
8 | Cc1cc(N(CCOS(C)(=O)=O)CCOS(C)(=O)=O)ccc1C=Nc1ccc(-c2csc(-c3ccccc3)n2)c(Cl)c1 | 17.7 | 36.1 | 25 | 3.02 | 40.9 | 51.3 | 55 | 29.8 | 50.5 | > 64.8 | – | – | – | – | – | – | – | – | – | –
9 | CCC1CCc2nc3sc(C(=O)Nc4ccccc4F)c(N)c3cc2C1 (configuration not stated) | > 100 | > 100 | > 100 | > 100 | 8.98 | > 100 | > 100 | > 100 | > 100 | > 100 | 41.7 | 0.401 | 3.55 | 24.8 | 0.454 | > 100 | 22.8 | 0.669 | 10.5 | > 100
